Data published in US5487898A, “Compositions and method for the sublingual or buccal administration therapeutic agents” (Abbott Laboratories, priority 1994, dated 1996).
Like-named read-outs stand apart in the source and are kept apart here.

How the values were obtained:
[1] = dog, in vivo
[2] = dog, in vivo; remark: listed apart in the source
Description: The dose of administered leuprolide acetate mid the measurement of plasma leuprolide concentration are the same as described for FIG. 1.
In this and subsequent Examples, bioavailability is calculated and expressed either in terms of Area Under Curve (AUC) or as percent (%) bioavailability. AUC is determined by calculating the area under the curve of plots of time (X-axis) versus plasma concentration (Y-axis) of the administered polypeptide. Typically, AUC is determined over a 6 (0-6) or 8 (0-8) hour period. Percent bioavailability is calculated as the ratio [formula] Increases in AUC and/or bioavailability indicate increased bioavailability of the administered polypeptide.
In one such composition the pH value was adjusted to a value of about 7.0 with NaOH.
The liquid compositions were sublingually administered to dogs (0.1 ml/10 kg body wt) and the plasma levels of leuprolide measured over 8 hours.

bioavailability, AUC 0-8 hours vs peppermint oil concentration (FIG. 4) [1]: increases the bioavailability
Percent Bioavailability ([2]; pH 5.6): 24.5%
Percent Bioavailability ([2]; pH 7): 2.7%
SMILES: CCNC(=O)[C@@H]1CCCN1C(=O)[C@H](CCCNC(=N)N)NC(=O)[C@H](CC(C)C)NC(=O)[C@@H](CC(C)C)NC(=O)[C@H](Cc1ccc(O)cc1)NC(=O)[C@H](CO)NC(=O)[C@H](Cc1c[nH]c2ccccc12)NC(=O)[C@H](Cc1c[nH]cn1)NC(=O)[C@@H]1CCC(=O)N1 [leuprolide acetate, 5-oxo-L-prolyl-L-histidyl-L-tryptophanyl-L-seryl-L-tyrosyl-D-leueyl-L-leueyl-L-arginyl-L-prolyl-ethylamide]
bioavailability vs benzoic acid concentration (FIG. 3) [2]: directly proportional to benzoic acid concentration
